# Data published in US8765775B2, “Anti-angiogenic compounds” (Universitaet Zuerich, priority 2008, dated 2014).
# Values joined by “and” are separate entries in the source; they are usually repeats but may differ in a detail not shown here. Equal values may be shown once.
# What was measured:
# [1] = molecular target: T1, EphB4 (Homo sapiens, UniProt P54760); experiment: Omnia kinetic assay (Omnia Tyr Recombinant Kit KNZ4051); format: biochemical; design: purchased Proqinase, Germany
# T1 sequence (P54760 16-987): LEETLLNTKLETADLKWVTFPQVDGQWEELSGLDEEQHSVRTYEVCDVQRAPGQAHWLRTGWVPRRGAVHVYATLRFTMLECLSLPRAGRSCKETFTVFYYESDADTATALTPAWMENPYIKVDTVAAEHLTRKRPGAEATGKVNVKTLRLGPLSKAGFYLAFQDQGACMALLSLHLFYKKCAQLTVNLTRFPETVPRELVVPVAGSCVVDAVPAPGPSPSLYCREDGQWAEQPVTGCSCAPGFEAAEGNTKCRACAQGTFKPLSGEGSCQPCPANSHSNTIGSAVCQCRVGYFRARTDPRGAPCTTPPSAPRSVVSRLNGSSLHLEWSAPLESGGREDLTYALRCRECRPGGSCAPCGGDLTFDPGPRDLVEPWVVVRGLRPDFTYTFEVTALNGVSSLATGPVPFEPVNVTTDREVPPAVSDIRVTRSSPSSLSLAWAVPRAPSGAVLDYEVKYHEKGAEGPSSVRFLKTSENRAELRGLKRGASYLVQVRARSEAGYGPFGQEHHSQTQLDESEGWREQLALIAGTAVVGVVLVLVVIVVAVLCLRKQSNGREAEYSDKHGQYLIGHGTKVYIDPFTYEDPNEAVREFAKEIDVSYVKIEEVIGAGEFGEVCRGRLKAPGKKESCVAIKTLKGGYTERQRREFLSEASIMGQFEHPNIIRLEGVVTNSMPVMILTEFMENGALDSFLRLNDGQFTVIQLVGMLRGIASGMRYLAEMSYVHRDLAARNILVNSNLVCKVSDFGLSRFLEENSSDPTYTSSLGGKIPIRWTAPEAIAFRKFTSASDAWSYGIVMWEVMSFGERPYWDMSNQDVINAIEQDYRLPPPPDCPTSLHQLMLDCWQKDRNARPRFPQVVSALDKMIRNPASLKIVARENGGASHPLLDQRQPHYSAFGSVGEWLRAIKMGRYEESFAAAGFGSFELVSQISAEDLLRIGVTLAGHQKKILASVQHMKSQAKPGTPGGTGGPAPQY
# Method: The data obtained in these experiments are shown in a specific velocity plot (FIG. 2), where the ratio of the initial velocities for the non-inhibited and inhibited reactions at a given ATP concentration (v0/vi in FIG. 2) is plotted versus σ/(1+σ), with σ=[ATP]/Km. […] Kinetic assay. […] Fluorescence progress curves are measured upon excitation at 360 nm and emission at 485 nm. […] Biosource Omnia. […] The assay is run at 30° C. for 1 hour.
# [2] = molecular target: T2, myc-tagged full-length human EphB4 (Homo sapiens, UniProt P54760); experiment: Phospho-EphB4 ELISA of CHO cells (EphB4 autophosphorylation); format: cell-based
# T2 construct: stably transfected with myc-tagged full-length human EphB4; expressed in transfected cells; host or cells: CHO-FRT cells (Flip-In System, Invitrogen)
# T2 sequence (P54760 16-987): T1 sequence (P54760 16-987)
# Method: Phospho-EphB4 ELISA of CHO cells. The ELISA assay was performed as follows: Chinese hamster ovary (CHO)-FRT cells are stably transfected with myc-tagged full-length human EphB4 according to the Flip-In System protocol (Invitrogen, USA). […] Cells of this clone are preincubated with EphB4 inhibitors for 15 minutes and then stimulated with preclustered ephrinB2-Fc for 45 minutes at 37° C. Cells are lysed, transferred to a 96-well plate coated with anti-myc antibody and incubated overnight at 4° C. After incubation with anti-phosphotyrosine antibody, reactions are developed with BM Blue peroxydase substrate, and autophosphorylation of EphB4 is quantified by measuring absorption at 450 nm.
# [3] = molecular target: T1, EphB4; experiment: Panvera Z'Lyte FRET-based enzymatic assay
# Method: In vitro kinase activity was measured using the Panvera Z'Lyte Tyr2 kinase assay PV3191 (Invitrogen, USA), according to the manufacturer's instructions. […] The reaction is performed at room temperature for 1 hour.
# [4] = molecular target: T1, EphB4; experiment: IC50 and % inhibition (Table 3); format: biochemical; conditions: for IC50: repeated determinations
# [5] = molecular target: T1, EphB4; experiment: Cerep FRET-based enzymatic assay; format: biochemical; conditions: ATP 0.75 μM, read-out: Enzymatic assays IC50 Cerep
# Source text: Similar values of IC50 compared to the original FRET-based enzymatic assay (Z'Lyte) are obtained (Table 2).
smiles,measurement,setting,value
Cn1c(=O)[nH]c(=O)c2c1nc1n(CCCCO)c(-c3ccccc3)cn21 [Compound 2],Sensitivity of inhibition to detergent (in words),[1]; 0.01% Triton X-100,detergent-insensitive inhibition
same,Mode of inhibition versus ATP (specific velocity plot),"[1]; ATP 31.25 to 500 μM, Km 158 μM",ATP competitive
same,Ki,"[1]; two experiments, with and without 0.01% Triton X-100, read-out: Ki corresponding to Omnia IC50",2700 nM and 2900 nM
same,IC50,"[1]; two experiments, without and with 0.01% Triton X-100, ATP 125 μM, 30° C. 1 hour, read-out: Enzymatic assays IC50 Omnia",5.6 µM and 7.9 µM
same,Inhibitory effects on EphB4 autophosphorylation in CHO cells (in words),[2]; 20 μM,only mild inhibitory effects
same,Cell-based assay percent inhibition,"[2]; in CHO cells, at 20 μM",neg.
same,IC50,[3],~1600 nM
same,IC50,"[3]; Enzymatic assays IC50 Z′Lyte, FRET-based, 10 μM ATP, 1% DMSO, room temperature 1 hour",1400 nM and 1800 nM
same,% inhibition at indicated concentration C,"[4]; C = 10 μM, 10 µM",67% and 68% and 59% and 64%
same,inhibition at 10 µM,"[4]; C = 10 μM, read-out: % inhibition at indicated concentration C",72%
same,IC50,"[4]; IC50, Table 3",6.7 µM
same,IC50,"[4]; Table 3, read-out: IC50",8 µM and 7 µM
same,IC50,[5],6.8 µM
